The text below walks through data of patent US4031093A, “1,6-Dihydro-6-oxo-2-(ortho-substituted phenyl)pyrimidine-5-carboxylic acid derivatives” (priority 1976, dated 1977).

Where two headings read alike, the source gives them in different places. Some results are limits rather than exact numbers.

For data set [1] the following is noted: cited from earlier work.
In data set [2] the test system is reagin-mediated rat Passive Cutaneous Anaphylaxis (PCA). In words: reagin-mediated rat Passive Cutaneous Anaphylaxis (PCA) screening test. It counts as in vivo, rat (Sprague-Dawley). Here is the method: The reagin-mediated rat Passive Cutaneous Anaphylaxis (PCA) screening test used to evaluate the present compounds is generally regarded as one of the best animal models for use in predicting the antiallergy activity of test compounds in man. Briefly, the method consists of passive sensitization of skin sites on the test animals with reaginic antibodies followed after 24 hours by administration of the test drug and antigen challenge. The allergic response is measured by use of Evans' blue dye and is evaluated by the spot diameter at the injection site. Details of the test are provided below.
A substituted ovalbumin antigen is used both as immunogen and challenging antigen. The antigen is prepared as follows: 500 mg. ovalbumin (EA) and 500 mg. K2 CO3 are dissolved in 25 ml. distilled H2 O and stirred at room temperature for 5 minutes. Five hundred (500) mg. dinitrobenzene sulfonic acid, Na^+ salt, (previously recrystallized from hot absolute ethanol) is then added slowly with continued stirring. The reaction mixture is then immediately placed in the dark and allowed to proceed for 2 hours with constant stirring. After 2 hours the mixture is placed in suitable dialysis tubing and dialyzed against 5 changes (4 liters each) of distilled H2 O at 5° C. After dialysis the product is lyophilized and stored at room temperature in a brown or amber container. The antigen obtained will appear as a light yellow, amorphous solid which is very soluble in water or saline. It is designated as DNP denatured ovalbumin (DNP-d EA).
Adult, male Sprague-Dawley rats are used as a source of reagin-rich antisera for the PCA model. Immunization is by a combination of DNP-d EA on Al (OH)3 gel and B. pertussis vaccine. Preparation of the DNP-d EA - gel immunogen is as follows: Dissolve the DNP-d EA in TBS so as to give a concentration of 10 mg./ml. Slowly add 1 ml. of this solution to 10 ml. Al(OH)3 gel (10 mg. solids/ml.) with constant stirring at room temperature. Stir the mixture an additional 30 minutes to insure a uniform adsorption of antigen on gel.
The resulting preparation is then used in combination with phase I B. pertussis vaccine to immunize male S/D rats as follows: For each rat administer 0.1 ml. DNP-d EA - gel suspension intramuscularly in each hind leg (200 μg DNP-d EA and 2 mg. gel total dose). Follow these injections by the intraperitoneal administration of 1.0 ml. B. pertussis vaccine (10-20 × 10^9 organisms). The use of light ether anesthesia during this procedure is recommended to insure proper intramuscular and intraperitoneal injections. Nine days following immunization (but no longer than 10) the animals are exsanguinated by cardiac puncture or abdominal aorta cannulation under ether or pentobarbital anesthesia. The collected whole blood is allowed to clot, the serum separated by centrifugation and the individual serum samples stored frozen until assayed for IgE content.
Individual serum samples should be screened for reaginic antibody concentration before being pooled with other sera, as not all rats respond to immunization procedures with reagin production. A 1:50 saline dilution of serum from each immunized rat is used for this purpose. Intradermal injections of 0.05 ml. of the diluted sera are made in the shaven backs of two small female recipient rats, 100-120 gms. Several serum samples can be tested simultaneously in recipient animals. After a 24 to 48 hour latent period antigen challenge is accomplished by […] administration to each rat of 1 mg. DNP-d EA in 0.5 ml. 0.5% Evans' blue dye in saline. Sera which show positive PCA reactions at the 1:50 dilution, as measured 20 to 30 minutes post-challenge are pooled, dispensed in small aliquots and stored at -70° C. or lower until used. Negative sera may be discarded.
The IgE titer of the antisera pool should then be determined. […]

Data set [3] concerns release of mediators, e.g. histamine and SRS-A. The conditions noted are these: administered to asthmatic patients prior to inhalation of specific antigens; cited from earlier work.
For data set [4] the following is noted: bronchial asthma treatment; cited from earlier work.
The mark [5] stands for this setting: po, Table II, p.o., 10 minutes prior to antigen challenge, acids solubilized in aqueous sodium bicarbonate, read-out: ID50 (dose of compound that inhibits 50% of the response), 5-carboxylic acids, p.o.

As for `O=C(O)c1cc(=O)c2c(OCC(O)COc3cccc4oc(C(=O)O)cc(=O)c34)cccc2o1` [DSCG, Disodium cromoglycate, reference compound], the oral absorption result in data set [1] is “not orally absorbed”. Also, the ED50 is 0.3 mg/kg in data set [2] (iv, Table I, i.v., compound dosed at time of challenge, solubilized in saline, read-out: ID50, DSCG, i.v. (Table I)); over 30 mg/kg in data set [2] (po, Table I, p.o., 10 minutes prior to antigen challenge, esters suspended in Tween/CMC, read-out: ID50 (dose of compound that inhibits 50% of the response), ethyl esters, p.o.); over 30 mg/kg in data set [2] (setting [5]). Also, the “inhibition of release of mediators” value in data set [3] was “inhibits the release of mediators, e.g. histamine and SRS-A”. For the compound `CC(C)Oc1ccccc1-c1ncc(C(=O)O)c(=O)[nH]1` [Example 22, 1,6-Dihydro-6-oxo-2-(2-isopropoxyphenyl)pyrimidine-5-carboxylic acid], in data set [2] (setting [5]), the ED50 came to 0.8 mg/kg. Turning to `CCCCOc1ccccc1-c1ncc(C(=O)O)c(=O)[nH]1` [Example 23, 1,6-Dihydro-6-oxo-2-(2-n-butoxyphenyl)pyrimidine-5-carboxylic acid], the ED50 in data set [2] (setting [5]) was 0.5 mg/kg. On the same count and under the same terms, for `C=CCOc1ccccc1-c1ncc(C(=O)O)c(=O)[nH]1` [Example 24A, 1,6-Dihydro-6-oxo-2-(2-allyloxyphenyl)pyrimidine-5-carboxylic acid] the value was 0.5 mg/kg; for `CC(C)COc1ccccc1-c1ncc(C(=O)O)c(=O)[nH]1` [Example 24C, 1,6-Dihydro-6-oxo-2-(2-isobutoxyphenyl)pyrimidine-5-carboxylic acid], 0.5 mg/kg. Take `COc1ccc(OC)c(-c2ncc(C(=O)O)c(=O)[nH]2)c1` [Example 24D, 1,6-Dihydro-6-oxo-2-(2,5-dimethoxyphenyl)pyrimidine-5-carboxylic acid]: the ED50 in data set [2] (setting [5]) is 1 mg/kg. Still for that read-out and setting: for `CCOc1ccc(Cl)cc1-c1ncc(C(=O)O)c(=O)[nH]1` [Example 24E, 1,6-Dihydro-6-oxo-2-(5-chloro-2-ethoxyphenyl)pyrimidine-5-carboxylic acid] the value was 0.5 mg/kg; for `CCOc1ccc(N)cc1-c1ncc(C(=O)O)c(=O)[nH]1` [Example 24F, 1,6-Dihydro-6-oxo-2-(5-amino-2-ethoxyphenyl)pyrimidine-5-carboxylic acid], 0.9 mg/kg; for `CCOc1ccc(OC)cc1-c1ncc(C(=O)O)c(=O)[nH]1` [Example 24G, 1,6-Dihydro-6-oxo-2-(2-ethoxy-5-methoxyphenyl)pyrimidine-5-carboxylic acid], 0.2 mg/kg. Same read-out and setting: under `O=C(O)c1cnc(-c2ccccc2OCC2CC2)[nH]c1=O` [Example 25, 1,6-Dihydro-6-oxo-2-(2-cyclopropylmethoxyphenyl)pyrimidine-5-carboxylic acid] stands about 0.1 mg/kg; under `CCOc1ccc(N(C)C)cc1-c1ncc(C(=O)O)c(=O)[nH]1` [Example 26, 1,6-Dihydro-6-oxo-2-(5-dimethylamino-2-ethoxyphenyl)pyrimidine-5-carboxylicacid], 0.3 mg/kg. Still for that read-out and setting: for `CCCOc1ccc(OC)cc1-c1ncc(C(=O)O)c(=O)[nH]1` [Example 27, 1,6-Dihydro-6-oxo-2-(5-methoxy-2-n-propoxyphenyl)pyrimidine-5-carboxylic acid] the value was 0.3 mg/kg. As for `CN1[C@@H]2CC[C@H]1C[C@@H](OC(=O)C(CO)c1ccccc1)C2` (stereo partly shown) [atropine], the side effects result in data set [4] was “undesirable side effects, e.g. cardiac stimulation and gastrointestinal distress”. For `CNC[C@H](O)c1ccc(O)c(O)c1` [epinephrine], in data set [4], the side effects result is “undesirable side effects, e.g. cardiac stimulation and gastrointestinal distress”. With `CC(C)NCC(O)c1ccc(O)c(O)c1` (stereo not shown) [isoproterenol], in data set [4], the side effects entry is “undesirable side effects, e.g. cardiac stimulation and gastrointestinal distress”.
